One assay concerns E. coli D21f2tolC. The assay can be described thus: Resistance and cross-resistance levels, rpoB mutants from saturation mutagenesis (plasmid-borne), broth microdilution. The assay is classed as cell-based, Escherichia coli.
For assay [1], the target named is T1, E. coli RNAP holoenzyme (Escherichia coli, UniProt P0A8T7+P0A8V2). The assay is classed as biochemical. The note with it: 0.5 μM GE or 2.2 μM Rif; lacUV5(ICAP) promoter.
For assay [2], the target named is T2, E. coli RNAP holoenzyme ([F^517]σ^70-RNAP holoenzyme) (Escherichia coli, UniProt P0A8T7+P0A8V2).
T2 construct: made in house
The assay can be described thus: Fluorescence-detected RNAP-Rif interaction assay. The assay is classed as binding. The note with it: for pKd: calculated as koff/kon. The procedure: RNAP-Rif interaction assays were performed as in [Feklistov et al. (2008)]. The assays monitored the quenching of the fluorescence emission of fluorescein incorporated into RNAP holoenzyme at σ^70 residue 517 (serving as a fluorescence-resonance-energy-transfer donor) by the naphthyl moiety of Rif (serving as a fluorescence-resonance-energy-transfer acceptor; [Knight et al., 2005]; [Feklistov et al., 2008]). Fluorescence measurements were performed using a QuantaMaster QM1 spectrofluorometer (PTI, Edison, NJ) (excitation wavelength = 480 nm; emission wavelength = 530 nm; and excitation and emission slit widths = 5 nm).
For determination of association kinetics, 720 μl 2 nM [F^517]σ^70-RNAP holoenzyme and 0-2 μM GE in 40 mM Tris–HCl, pH 8.0, 100 mM NaCl, 10 mM MgCl2, 1 mM DTT, 0.02% Tween-20, and 5% glycerol was incubated 15 min at 24°C and then mixed with 30 μl 0.01–0.5 μM Rif in the same buffer at 24°C in a cuvette chamber with a mixing dead time ∼0.5 s, and fluorescence emission intensities were monitored for 30 min at 24°C. On-rates for RNAP-Rif interaction, kon, were calculated by fitting data to: I=(I0−I∞)exp(−kobst)+I∞ where kobs is the observed association rate constant at a specified Rif concentration, I is the fluorescence emission intensity at time t, Io is the fluorescence emission intensity at t = 0, and I∞ is the fluorescence emission intensity at t = ∞; followed by fitting the Rif-concentration-dependence of kobs to: kobs=kon[Rif]+koff where koff is ≥0 but is otherwise unconstrained.
Off-rates for RNAP-Rif interaction, koff, were calculated as: I=I0+(I∞−I0)[1−exp(−kofft)] where I is the fluorescence emission intensity at time t, Io is the fluorescence intensity at t = 0, and I∞ is the fluorescence intensity at t = ∞.
Equilibrium dissociation constants for RNAP-Rif interaction, Kd, were calculated as koff/kon.
The equilibrium dissociation constant for RNAP-GE interaction, Ki, was calculated from the association-kinetics data, by fitting the GE-concentration-dependence of I∞ to: I∞=(I∞,max[GE])/(Ki+[GE])

For assay [3], the target named is T1, E. coli RNAP holoenzyme. The assay is classed as biochemical. Particulars: 0.5 μM GE or 2.2 μM Rif; ApA primer and UTP.
The target of assay [4] is T1, E. coli RNAP holoenzyme. Type of assay: biochemical. The note with it: halted TEC containing 29 nt RNA product.
Another assay has as its target [Asn516]β-RNAP (Escherichia coli, UniProt P0A8T7+P0A8V2, D516N). The experiment in a line: biochemical. The assay is classed as biochemical.
The target of the next assay is [Asp565]β-RNAP (Escherichia coli, UniProt P0A8T7+P0A8V2, E565D). The assay is classed as biochemical.
Another assay deals with Escherichia coli RNAP (Escherichia coli, UniProt P0A8T7+P0A8V2). The assay can be described thus: biochemical. Type of assay: biochemical. Particulars: wild-type RNAP; at the limit of detection of the assay.
Assay [5] deals with [F^517]σ^70-RNAP holoenzyme (E. coli RNAP holoenzyme labelled with fluorescein at σ^70 residue 517), wild-type RNAP (E. coli) (UniProt P0A8V2). The assay can be described thus: other fluorescence titration.
Another assay addresses GE23077. The assay can be described thus: partial-competitive binding of GE and Rif: association kinetics for Rif (fluorescence intensity of fluorescein-labelled RNAP holoenzyme). The note with it: 2000 nM GE.
[6] abbreviates: rpoB 565 Glu→Asp, GE^R mutant from saturation mutagenesis.
The mark [7] stands for this setting: rpoB 566 Gly→Arg, GE^R mutant from saturation mutagenesis.
Setting [8] is: rpoB 566 Gly→Cys, GE^R mutant from saturation mutagenesis.
Where [9] appears, read: rpoB 566 Gly→Ser, GE^R mutant from saturation mutagenesis.
Setting [10] is: rpoB 684 Asn→Lys, GE^R mutant from saturation mutagenesis.
[11] abbreviates: rpoB 684 Asn→Thr, GE^R mutant from saturation mutagenesis.
Setting [12] is: wild-type control of the saturation-mutagenesis mutants, E. coli D21f2tolC.

pIC50, pKd, pKi: −log10 of the molar value. Read-outs that look alike come from different tables or passages of the source.

This is an account of results in PMC3994528, “GE23077 binds to the RNA polymerase ‘i’ and ‘i+1’ sites and prevents the binding of initiating nucleotides” (eLife, 2014).

For the compound `CCC/C(C)=C/C=C(\C)C(=O)c1c(O)cc([C@H](C)CC/C=C/NC(=O)OC)oc1=O` (racemic) [Myx, (±)E,E-myxopyronin B], the “resistance / cross-resistance level (MIC/MICwild-type)” value in the assay on E. coli D21f2tolC (setting [6]), with E. coli D21f2tolC (setting [7]), in the assay with E. coli D21f2tolC (setting [8]), in the assay on E. coli D21f2tolC (setting [9]), in the assay on E. coli D21f2tolC (setting [10]) and in the assay on E. coli D21f2tolC (setting [11]) was 1 each time. In addition, the MICwild-type against E. coli D21f2tolC (setting [12]) amounted to 0.098 µg/mL.
On to `ONC(=Nc1ccccc1)c1cccc(C(F)(F)F)c1` [CBR703], for which the “resistance / cross-resistance level (MIC/MICwild-type)” value with E. coli D21f2tolC (setting [6]) was found to be 1; with E. coli D21f2tolC (setting [7]), 1; in the assay with E. coli D21f2tolC (setting [8]), 1; in the assay on E. coli D21f2tolC (setting [9]), 1; in the assay with E. coli D21f2tolC (setting [10]), 1; with E. coli D21f2tolC (setting [11]), 2. The MICwild-type in the assay with E. coli D21f2tolC (setting [12]) stood at 6.25 µg/mL.
For `CO[C@H]1/C=C/O[C@@]2(C)Oc3c(C)c(O)c4c(O)c(c(/C=N/N5CCN(C)CC5)c(O)c4c3C2=O)NC(=O)/C(C)=C\C=C\[C@H](C)[C@H](O)[C@@H](C)[C@@H](O)[C@@H](C)[C@H](OC(C)=O)[C@@H]1C` [Rif, Rifampin], the MICwild-type turned out to be 0.2 µg/mL. Moreover, at E. coli RNAP holoenzyme [1], the “inhibition of formation of RNAP-promoter open complex (RPo)” value is on record as “does not inhibit formation of RPo”. For the same compound, the “cross-resistance of GE^R mutants to other RNAP inhibitors” value in the assay with E. coli D21f2tolC (GE^R mutants) is “do not exhibit cross-resistance”. For the same compound, the “resistance / cross-resistance level (MIC/MICwild-type)” value with E. coli D21f2tolC ({}) came out at 1. The pKd in assay [2] (absence of GE) is 9.40. The pKd in assay [2] (presence of saturating GE (2000 nM)) was 7.52. Besides, in assay [2] (read-out: koff for Rif, 0 nM GE, Figure 6-figure supplement 1), the koff stood at 0.00019 s⁻¹. In addition, the koff in assay [2] (read-out: koff for Rif, absence of GE, Figure 6C) came out at 0.0002 s⁻¹. Moreover, in [2] (read-out: kon for Rif, 0 nM GE, Figure 6-figure supplement 1 (condition assigned by comparison with Figure 6C)), the kon was determined as 520000 M⁻¹ s⁻¹. Further, the kon in [2] (read-out: kon for Rif, absence of GE, Figure 6C) amounted to 500000 M⁻¹ s⁻¹. Also, the “inhibition of first nucleotide addition, primer-dependent transcription initiation” value at E. coli RNAP holoenzyme [3] is “does not generally inhibit the first nucleotide-addition step in transcription initiation”. In addition, the “inhibition of nucleotide addition in transcription elongation, halted elongation complex” value against E. coli RNAP holoenzyme [4] is “does not inhibit nucleotide addition in transcription elongation”.
In the case of `CO[C@H]1/C=C/O[C@@]2(C)Oc3c(C)c(O)c4c(O)c(cc(O)c4c3C2=O)NC(=O)/C(C)=C\C=C\[C@H](C)[C@H](O)[C@@H](C)[C@@H](O)[C@@H](C)[C@H](OC(C)=O)[C@@H]1C` [RifSV, rifamycin SV], the pIC50 in [Asn516]β-RNAP was 5.00.
In the case of `CO[C@H]1/C=C/O[C@@]2(C)Oc3c(C)c(O)c4c(O)c(c(NC(C)C(C)C(=O)NC[C@H]5NC(=O)CNC(=O)[C@H](O)CNC(=O)[C@@H]([C@@H](C)O)NC(=O)[C@H]([C@@H](O)[C@H](O)C(N)=O)NC(=O)[C@@H](C(C)C)NC(=O)[C@@H](CO)NC5=O)c(O)c4c3C2=O)NC(=O)/C(C)=C\C=C\[C@H](C)[C@H](O)[C@@H](C)[C@@H](O)[C@@H](C)[C@H](OC(C)=O)[C@@H]1C` (stereo partly drawn) [RifaGE-3, {[α-descarboxy-Ama]GE}-NH-{RifSV}], in assay [Asp565]β-RNAP, the “fold more potent than GE in inhibition of GE^R RNAP” value is above 2500 fold. The pIC50 on Escherichia coli RNAP is at least 7.40; in assay [Asn516]β-RNAP (Rif-resistant RNAP [Asn516]β-RNAP, read-out: IC50) it was 6.70. In assay [Asn516]β-RNAP, the “fold more potent than RifSV in inhibition of Rif^R RNAP” value is reported as 50 fold.
As to `CNC(=O)[C@@H](C)[C@H]1C(=O)/C(=C(O)/C=C/C(C)=C/[C@@H](C)[C@H]2O[C@@]3(C)O[C@H](C=C[C@@]34CO4)[C@@H]2C)C(=O)N1[C@@H]1CC[C@H](O)[C@H](C)O1` [Stl, streptolydigin], in the assay with E. coli D21f2tolC ({}), the MICwild-type amounted to 0.78 µg/mL and the “resistance / cross-resistance level (MIC/MICwild-type)” value turned out to be 1.
In assay [5], GE23077 (peptide) had a pKi of 8.22.
Consider Lipiarmycin [Lpm], for which the “resistance / cross-resistance level (MIC/MICwild-type)” value with E. coli D21f2tolC (setting [6]), in the assay with E. coli D21f2tolC (setting [7]), with E. coli D21f2tolC (setting [8]), in the assay on E. coli D21f2tolC (setting [9]), with E. coli D21f2tolC (setting [10]) and with E. coli D21f2tolC (setting [11]) was 1 each time. This compound also returned an MICwild-type in the assay on E. coli D21f2tolC (setting [12]) of 0.78 µg/mL.
As to Sorangicin, the “resistance / cross-resistance level (MIC/MICwild-type)” value in the assay on E. coli D21f2tolC (setting [6]), in the assay with E. coli D21f2tolC (setting [7]), in the assay with E. coli D21f2tolC (setting [8]), in the assay with E. coli D21f2tolC (setting [9]), in the assay on E. coli D21f2tolC (setting [10]) and in the assay with E. coli D21f2tolC (setting [11]) was 1 throughout. Moreover, the MICwild-type against E. coli D21f2tolC (setting [12]) was determined as 1.56 µg/mL.
In the assay with GE23077, “[F^517]σ^70-RNAP holoenzyme (E. coli RNAP holoenzyme labelled with fluorescein at σ^70 residue 517), wild-type RNAP (from UniProt P0A8V2;P0A8T7;P00579) [Asp565]β” had a pKi below 5.70.
On the same count and under the same terms, to “[F^517]σ^70-RNAP holoenzyme (E. coli RNAP holoenzyme labelled with fluorescein at σ^70 residue 517), wild-type RNAP (from UniProt P0A8V2;P0A8T7;P00579) [Lys684]β” belongs below 5.70.

As usually defined, the pKd is the negative decadic logarithm of the Kd, by convention in mol/L. The term koff denotes the first-order rate constant of dissociation. The kon is the rate constant with which the complex forms. In general, pIC50 refers to −log10 of the IC50, conventionally taken in molar units. Broadly, the pKi is the Ki on a negative log10 scale, so that one unit is a factor of ten. A high value points to a small Ki.
